Source: the supplement of paper PMC10307832

Key:
Assay in all cases: relative viability (nuclei count vs DMSO), 5 days (fraction); higher = more cells survive
Afatinib + Vorinostat = compound: CN(C)C/C=C/C(=O)Nc1cc2c(Nc3ccc(F)c(Cl)c3)ncnc2cc1O[C@H]1CCOC1 [Afatinib] + O=C(CCCCCCC(=O)Nc1ccccc1)NO [Vorinostat] (partner 1 µM)
Outline: (§1)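 For relative viability, nuclei counts in treated wells were divided by those in vehicle wells. Lung cancer cell lines had been pin-tool dosed in 1536-well plates the day after seeding and cultured for 5 days, then fixed and stained in one step (final 0.05% Triton X-100, 1% formaldehyde, 1 ug/ml Hoechst) and imaged at 4×. Doses were one drug alone or a fixed anchor-drug dose plus five library-drug doses (not always all listed) in √10 steps, and values are duplicate-plate medians.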

Afatinib + Foretinib = compound: CN(C)C/C=C/C(=O)Nc1cc2c(Nc3ccc(F)c(Cl)c3)ncnc2cc1O[C@H]1CCOC1 [Afatinib] + COc1cc2c(Oc3ccc(NC(=O)C4(C(=O)Nc5ccc(F)cc5)CC4)cc3F)ccnc2cc1OCCCN1CCOCC1 [Foretinib] (partner 0.25 µM)
Outline: as §1

Afatinib + Pictilisib = compound: CN(C)C/C=C/C(=O)Nc1cc2c(Nc3ccc(F)c(Cl)c3)ncnc2cc1O[C@H]1CCOC1 [Afatinib] + CS(=O)(=O)N1CCN(Cc2cc3nc(-c4cccc5[nH]ncc45)nc(N4CCOCC4)c3s2)CC1 [Pictilisib] (partner 1 µM)
Outline: as §1

Afatinib + AZD7762 = compound: CN(C)C/C=C/C(=O)Nc1cc2c(Nc3ccc(F)c(Cl)c3)ncnc2cc1O[C@H]1CCOC1 [Afatinib] + NC(=O)Nc1cc(-c2cccc(F)c2)sc1C(=O)N[C@H]1CCCNC1 [AZD7762] (partner 0.2 µM)
Outline: as §1

Cell Line	relative viability (Afatinib + Vorinostat; first compound 0.005 µM)	relative viability (Afatinib + Vorinostat; first compound 0.01581 µM)	relative viability (Afatinib + Vorinostat; first compound 0.05 µM)	relative viability (Afatinib + Vorinostat; first compound 0.1581 µM)	relative viability (Afatinib + Vorinostat; first compound 0.5 µM)	relative viability (Afatinib + Foretinib; first compound 0.005 µM)	relative viability (Afatinib + Foretinib; first compound 0.01581 µM)	relative viability (Afatinib + Foretinib; first compound 0.05 µM)	relative viability (Afatinib + Foretinib; first compound 0.1581 µM)	relative viability (Afatinib + Foretinib; first compound 0.5 µM)	relative viability (Afatinib + Pictilisib; first compound 0.005 µM)	relative viability (Afatinib + Pictilisib; first compound 0.01581 µM)	relative viability (Afatinib + Pictilisib; first compound 0.05 µM)	relative viability (Afatinib + Pictilisib; first compound 0.5 µM)	relative viability (Afatinib + AZD7762; first compound 0.005 µM)	relative viability (Afatinib + AZD7762; first compound 0.01581 µM)	relative viability (Afatinib + AZD7762; first compound 0.05 µM)	relative viability (Afatinib + AZD7762; first compound 0.1581 µM)	relative viability (Afatinib + AZD7762; first compound 0.5 µM)	relative viability (Afatinib + Pictilisib; first compound 0.1581 µM)
NCI-H2228	0.928	0.444	0.566	0.698	0.462	0.914	0.88	0.774	0.795	0.759	0.343	0.45	0.381	0.279	–	–	–	–	–	–
NCI-H2087	0.658	0.625	0.968	0.91	0.592	1.19	1.16	1.24	1.15	0.842	1.12	0.907	0.86	0.72	1.15	1.45	1.27	1.31	1.21	0.904
LU99A	0.467	0.61	0.487	0.419	0.502	0.957	0.818	0.831	0.77	0.785	0.345	0.395	0.308	0.295	0.238	0.41	0.37	0.257	0.293	0.349
NCI-H1355	0.597	0.585	0.545	0.553	0.552	0.947	0.636	0.824	0.773	0.751	0.39	0.467	0.482	0.21	0.71	0.765	0.779	0.645	0.748	0.36
NCI-H520	0.807	0.707	0.639	0.698	0.717	0.83	0.656	0.698	0.812	0.744	0.353	0.304	0.208	0.233	–	–	–	–	–	0.232
NCI-H661	0.867	0.738	0.755	0.64	0.63	1.06	0.874	0.738	0.75	0.625	0.386	0.301	0.318	0.249	–	–	–	–	–	0.313
NCI-H650	0.469	0.395	0.551	0.515	0.316	1.13	0.997	1.06	1.02	0.998	0.889	0.793	1	0.924	0.832	0.886	1.03	1.04	0.904	1.09
NCI-H647	0.493	0.513	0.595	0.523	0.524	1.21	1.1	1.21	1.11	1.14	0.407	–	0.457	0.453	0.32	0.426	0.403	0.525	0.466	0.459
SW 1573	0.696	0.682	1.01	0.692	0.777	0.999	0.924	0.898	0.861	0.877	0.547	0.406	0.585	0.484	–	–	–	–	–	0.484
COR-L23	0.682	0.443	0.484	0.39	0.485	1.16	0.981	0.946	1	1.01	0.689	0.762	0.854	0.853	–	–	–	–	–	0.955
SK-LU-1	0.727	0.806	0.767	0.771	0.738	0.856	0.833	0.878	0.764	0.845	0.713	0.537	0.561	0.531	–	–	–	–	–	0.564
NCI-H1650	0.462	0.424	0.599	0.472	0.432	0.871	–	0.9	0.671	0.774	0.589	–	0.553	0.545	–	–	–	–	–	0.487
UMC-11	0.378	0.361	0.347	0.416	0.364	0.992	1.03	1.08	1.02	0.996	0.981	0.841	0.787	0.84	–	–	–	–	–	0.725
SK-MES-1	0.542	0.816	0.509	0.54	0.506	0.905	0.552	0.596	0.372	0.448	0.273	0.238	0.217	0.208	–	–	–	–	–	0.213
NCI-H2009	0.772	0.775	0.812	0.701	0.755	1.22	1.19	1.31	1.21	1.33	0.875	0.822	0.95	0.74	–	–	–	–	–	0.786
NCI-H2023	0.445	0.566	0.592	0.556	0.549	0.811	0.892	0.42	0.333	0.562	0.248	0.233	0.261	0.239	–	–	–	–	–	0.216
COR-L 105	0.667	0.386	0.47	0.336	0.386	0.385	0.448	0.37	0.287	0.318	0.359	0.355	0.302	0.35	–	–	–	–	–	0.252
NCI-H1563	–	–	–	–	–	0.891	0.967	0.933	0.836	0.87	0.6	0.644	0.683	0.657	–	–	–	–	–	0.637
EBC-1	–	–	–	–	–	0.105	0.0995	0.0925	0.109	0.0966	0.391	0.386	0.465	0.372	–	–	–	–	–	0.358
Calu-6	–	–	–	–	–	0.913	0.975	0.882	0.88	0.93	0.999	0.941	1.01	0.989	–	–	–	–	–	0.964
HCC-44	1.18	1.09	1.18	1.1	1.05	–	–	–	–	–	0.619	0.619	0.638	0.533	0.98	0.973	1.07	1	0.959	0.514
